System: MDA-MB-231 xenograft tumors
Test: Breast cancer xenograft mouse model, tumor growth
Format: in vivo, mice
Description: Six-week-old female athymic nude mice (Homozygous) were purchase from Vital River Laboratories (Beijing, China) and maintained under the guidelines for laboratory animals of Nankai university (NKU). Mice were injected subcutaneously with 2 × 10^6 MDA-MB-231 or 8 × 10^6 OVCAR5 cells. When tumors were 50–100 mm^3 in size, the mice were randomly grouped and treated intraperitoneal (i.p.) with 50 mg/kg of Olaparib, 50 mg/kg of LY2835219, 50 mg/kg of ZC-22, or 1.5 mg/kg of cisplatin alone or in combinations or with the vehicle (PBS containing 10% DMSO and 10% 2-hydroxy-propyl-β-cyclodextrin) every 2 days. Tumor volume was measured every 3–4 days, which was calculated as Length × Width^2/2. At the end of the study, tumor and major organ tissues were harvested by surgery. For histopathological analysis, tissue samples were washed with PBS, fixed in 4% paraformaldehyde (PFA), paraffin-embedded, and sectioned into 7 μm thickness. For Western blot analysis, the tissue samples were dissociated by a tissue-tearor in RIPA buffer containing 1×protease and phosphatase inhibitors.
Figure 4 ZC-22 suppresses growth of breast cancer xenografts. Female NOD-SCID mice were injected subcutaneously with 2 × 10^6 of MDA-MB-231 cells and treated ip daily with 50 mg/kg of Olaparib (OLA) or LY2835219 (LY-2) alone or together (OLA + LY-2) or with ZC-22 alone starting on day 10 after injection of cells when tumors were 50–80 mm^3 in size. Tumor volumes were measured every 2–3 days. […] (B,C) Pictures of (B) and quantification of the size of (C) the MDA-MB-231 xenograft tumors at the end points. […] (E) Quantification of Ki67 (Left) and γH2A.X (Right)-positive cells in immunohistochemical staining of the xenograft tumor tissues. […]
Figure 6 ZC-22 sensitizes breast cancer cells to cisplatin treatment in vivo. […] Tumor volumes were measured every 2–3 days. […] (B,C) Pictures (B) and quantification of the size (C) of the MDA-MB-231 xenograft tumors at the end points. […] (E) Quantification of Ki67 (left) and γH2A.X (right)-positive cells in immunohistochemical staining of the xenograft tumor tissues. […]

Cc1nc2c(F)cc(-c3nc(Nc4ccc(N5CCN(C(=O)c6cc(Cc7n[nH]c(=O)c8ccccc78)ccc6F)CC5)cn4)ncc3F)cc2n1C(C)C [ZC-22, 4-(4-fluoro-3-(4-(6-((5-fluoro-4-(4-fluoro-1-isopropyl-2-methyl-1H-benzo[d]imidazole-6-yl)pyrimidin-2-yl)amino)pyridin-3-yl)piperazine-1-carbonyl)benzyl)phthalazin-1(2H)-one]
growth of the xenograft tumors (1.5 mg/kg cisplatin or 50 mg/kg ZC-22 ip alone or together): effectively inhibit growth of the xenograft tumors | anti-tumor efficacy (tumor growth) (50 mg/kg ip, Olaparib and LY2835219 alone or together, or ZC-22): even higher therapeutic efficacy than combined Olaparib and Abemaciclib therapy
